Patent US7445892B2, “Method of testing anticancer agent-sensitivity of tumor cells” (Eisai Co., Ltd., priority 2000, dated 2008)

Tested on: HCT116-C9
Assay: Gene expression analysis using DNA microarray (GeneChip Hu6800)
Assay type: cell-based, human
Procedure: All cells were cultured in RPMI-1640 medium supplemented with 10% of fetal bovine serum, 100 units/ml of penicillin and 100 μg/ml of streptomycin at 37° C. under 5% CO2.
E7070, or ER-35748 or ER-68487 represented by the structural formula shown below was added to the media of an E7070-susceptible strain HCT116-C9 and an E7070-resistant strain HCT116-C9-C1 at a concentration of 8 μM and the cells were cultured. Then, cells were recovered after 0, 3, 6 and 12 hours. Further, the cells were also cultured for 12 hours without adding the drug and recovered.
Total RNA was extracted from these cells and subjected to the subsequent analyses. The RNA extracted from the cells cultured for 12 hours with the drug and the RNA from extracted the cells cultured for 12 hours without the drug were used for the gene expression analysis using a DNA microarray described in Example 2. HCT116-C9 was a substrain isolated from HCT116 derived from human colon cancer (American Type Culture Collection, Manassas, Va., U.S.A.), and HCT116-C9-C1 was an E7070-resistant substrain obtained by culturing this HCT116-C9 in the presence of E7070 with gradually increasing the E7070 concentration.
Total RNA was extracted from the recovered cells by using TRIZOL Reagent (Life Technologies Oriental) according to the attached operation manual.
Each RNA obtained in Example 1 was dissolved in 100 μl of sterilized water treated with diethyl pyrocarbonate (DEPC) and further purified by using RNeasy Column (QIAGEN), and double-stranded cDNA was synthesized by using SuperScript Choice System (Life Technologies Oriental) and a T7-d(T)24 primer.
First, to 10 μg of RNA, 5 μM T7-d(T)24 primer, 1×First strand buffer, 10 mM DTT, 500 μM dNTP mix and 20 units/μl of SuperScript II Reverse Transcriptase were added and the mixture was allowed to react at 42° C. for 1 hour to synthesize single-stranded DNA. Subsequently, to the DNA, 1×Second strand buffer, 200 μM dNTP mix, 67 U/ml of DNA ligase, 270 U/ml of DNA polymerase I and 13 U/ml of RNase H were added and the mixture was allowed to react at 16° C. for 2 hours to synthesize double-stranded cDNA. Further, to the cDNA, 67 U/ml of T4 DNA polymerase I was added and the mixture was allowed to react at 16° C. for 5 minutes and then 10 μl of 0.5 M EDTA was added to terminate the reaction.
The obtained cDNA was purified with phenol/chloroform, and a labeling reaction with biotinylated UTP and CTP was carried out by using RNA Transcript Labeling Kit (Enzo Diagnostics) according to the attached operation manual. The reaction product was purified with Rneasy Column and heated in 200 mM Tris/acetate buffer (pH 8.1), 150 mM magnesium acetate, 50 mM potassium acetate at 94° C. for 35 minutes to obtain fragment cRNA.
The fragmented cRNA was hybridized with GeneChip Hu6800 (Affymetrix) in 100 mM MES, 1 M sodium salt, 20 mM EDTA and 0.01% Tween 20 at 45° C. for 16 hours. After the hybridization, the GeneChip was washed and stained according to the protocol EukGE-WS2 attached to Affymetrix Fluidics Station. For the staining, streptavidin-phycoerythrin and biotinylated goat anti-streptavidin antibody were used. The stained GeneChip was scanned by using HP Argon Ion Laser Confocal Scanner (Hewlett Packard) to measure its fluorescence intensity. The fluorescence was measured at 570 nm by using an excitation light at 488 nm.
The quantitative data analyses were all conducted by using GeneChip Software (Affymetrix). To quantify RNA, an average of “differences [(Perfect match hybridization signal)−(Mismatch signal)]” was obtained for each probe family.
E7070, or ER-35748 or ER-68487 was added to a medium for HCT116-C9 at a concentration of 8 μM and culture was performed. The results of analysis of RNA extracted from the cells at 12 hours by using GeneChip were compared with the results of RNA analysis for HCT116-C9 cells obtained in the same manner except for not adding the drug. […]

[1] = HCT116-C9, 8 μM, 12 hours, compared with cells without drug, change of 1.8 times or more counted

`NS(=O)(=O)c1ccc(S(=O)(=O)Nc2cccc3c(Cl)c[nH]c23)cc1` [E7070, N-(3-chloro-7-indolyl)-1,4-benzenedisulfonamide] was tested. Which “enhancement of expression of the genes listed in Table 3” value (HCT116-C9, 8 μM for 12 hours) did it give?
The value was at least 1.8 times.

What about the “inhibition of expression of the genes listed in Table 4” value (HCT116-C9, 8 μM for 12 hours) of the same compound?
Its value is at least 1.8 times.

And the “expression levels of the genes listed in Table 1” value [1]?
Its value is “increased”.

What about the “expression levels of the genes listed in Table 2” value [1] of the same compound?
The value was “decreased”.
